# In patent US20140148446A1, “COMPOUNDS THAT ENABLE ALTERNATIVE MITOCHONDRIAL ELECTRON TRANSFER” (University of North Texas Health Science Center, priority 2010, published 2014):
# Experiments:
# [1] = test system: mitochondrial complex II-III; assay: Mitochondrial complex II-III activity in extracted mitochondria; format: biochemical, rat; settings: with and without antimycin A
# Method: Fresh rat heart was removed and placed in ice-cold mitochondrial isolation buffer containing 210 mM mannitol, 70 mM sucrose, 5 mM HEPES, and 1 mM EDTA, pH 7. The heart was homogenized immediately, and the mitochondrial fraction was isolated by differential centrifugation as described previously (Trounce et al., 1996). Mitochondria were stored at −80° C. until subsequent analysis.
# All mitochondrial activity assays were performed according to previous publications with minimal modifications for complex I (Lenaz et al., 2004), complex I-III, complex II, complex III, and II-III (Trounce et al., 1996). […] Complex I activity was monitored by adding NADH to the mix with or without rotenone/antimycin A. The final data were normalized to blank values at time zero. The reaction was monitored in a kinetic spectrophotometer at 340 nm. Complex I activity was measured in arbitrary units and normalized to control levels for statistical analysis. Isolated mitochondria equivalent to 40-200 μg mitochondrial protein was used for each assay, except for assays with inhibitors, when larger amount of mitochondria (3 to 5 folds) were used to ensure that inhibition was distinguishable. Final data were normalized to control levels. For complex I-III activity, the reaction was initiated with the addition of NADH, cyt c was used as final substrate and its reduction was monitored at 550 nm. […]
# [2] = test system: HT-22 cells; assay: Cell viability assay, H2O2 (glucose oxidase) induced cytotoxicity; format: cell-based
# [3] = test system: rotenone induced rat model of PD; assay: Rotenone model of PD: striatal monoamines, brain complex I-III activity and total ROS; format: in vivo
# Method: All mitochondrial activity assays were performed according to previous publications with minimal modifications for complex I (Lenaz et al., 2004), complex I-III, complex II, complex III, and II-III (Trounce et al., 1996). All assays used a similar master mix that contained potassium phosphate pH 7.4 (50 mM), BSA 2.5mg/ml, MgCl2 5 mM, KCN (2 mM), and various inhibitors or substrates, including rotenone (6 μM), antimycin A (2 μM), NADH (150 μM), CoQ1 (60 μM), cyt c (50 μM), succinate (8 mM), and DBH2 (100 μM). Complex I activity was monitored by adding NADH to the mix with or without rotenone/antimycin A. The final data were normalized to blank values at time zero. The reaction was monitored in a kinetic spectrophotometer at 340 nm. Complex I activity was measured in arbitrary units and normalized to control levels for statistical analysis. Isolated mitochondria equivalent to 40-200 μg mitochondrial protein was used for each assay, except for assays with inhibitors, when larger amount of mitochondria (3 to 5 folds) were used to ensure that inhibition was distinguishable. Final data were normalized to control levels. For complex I-III activity, the reaction was initiated with the addition of NADH, cyt c was used as final substrate and its reduction was monitored at 550 nm. For assay of complex II-III activity, succinate was added instead of NADH, and the electron transfer to cyt c was performed according to previous publications (Atamna et al., 2008). To test whether the electrons from the reduced form of MB (MBH2) can be transferred to cyt c in mitochondrial lysate, we added 10 μM 2,7-dichlorofluorescin (DCFH, Invitrogen, Carlsbad, Calif.) to the reaction system. Free radicals convert non-fluorescent DCFH to highly fluorescent DCF (Ex, 488 nm, and Em, 530 nm). In the presence of cyt c, which accepts electrons from MBH2, conversion of DCFH to DCF is decreased.
# Rats were assigned to three groups: control animals received vehicle infusion and daily saline injection (Veh/Sal N=6-8); a second group received rotenone infusion at the dose of 5 mg/kg/day and daily saline injection (ROT/Saline N=8-11); and the third group received rotenone infusion (5 mg/kg/day) and MB injection at the dose of 500 μg/kg/day (ROT/MB N=8-10). Vehicle or rotenone was infused via Alzet osmotic mini pumps that were filled with vehicle or rotenone dissolved in vehicle (equal volumes of dimethylsulfoxide and polyethylene glycol). Pumps containing vehicle or rotenone were sterilized with UV irradiation and implanted subcutaneously on the back. Intraperitoneal injections were administered with normal saline or MB, 500 μg/kg/day, diluted in normal saline to 500 μl of final volume. Rats were sacrificed on day 8 at four hours after last dose of MB or saline treatment.
# After completion of neurological assessments and behavioral tests, rats were killed on the 8th day of rotenone infusion under anesthesia induced by xylazine (20 mg/kg, i.p.) and ketamine (100 mg/kg, i.p.). All osmotic pumps were checked for the residual liquid to ensure proper drug delivery. One hemisphere was fixed by 4% paraformaldehyde in phosphate buffer for 48 hr until processing for sectioning. The other hemisphere was snap-frozen in liquid nitrogen, and kept at −80° C. until extraction for biochemical analysis. Striatum dissected from a separate set of animals were used for analysis of monoamines by HPLC. […]
structure (smiles),measurement,setting,value
CN(C)c1ccc2nc3ccc(=[N+](C)C)cc-3sc2c1 [methylene blue],Effect on complex II-III activity,[1],no significant effects
same,Protection against H2O2 induced oxidative damage,[2],failed to protect
same,Decrease of complex I-III activity in brain extracts,[3]; MB 500 μg/kg/day i.p.,prevented
same,Overall ROS in brain extracts,[3]; MB 500 μg/kg/day i.p.,attenuated in the ROT/MB group to basal level
same,Striatum L-DOPAC depletion,[3]; MB 500 μg/kg/day i.p.,almost completely rescued
same,Striatum dopamine depletion,[3]; MB 500 μg/kg/day i.p.,almost completely rescued
same,Striatum 5-HT levels,[3]; all three groups,no significant differences
